In ChEMBL document CHEMBL1141636, “New ultra-short acting hypnotic: synthesis, biological evaluation, and metabolic profile of ethyl 8-oxo-5,6,7,8-tetrahydro-thiazolo[3,2-a][1,3]diazepin-3-carboxylate (HIE-124)” (Bioorg Med Chem Lett, 2008):

Experiments:
Mus musculus [1] = assay: Hypnotic effect in mouse assessed as sleeping time at 50 mg/kg, iv by loss of righting reflex method; assay type: functional
Mus musculus [2] = assay: Hypnotic effect in mouse assessed as sleeping time at 65 mg/kg, ip; assay type: functional; conditions: route intraperitoneal
Mus musculus [3] = assay: Hypnotic effect in mouse assessed as sleeping time at 100 mg/kg, iv by loss of righting reflex method; assay type: functional
Mus musculus [4] = assay: Potentiation of thiopental-induced hypnosis in mouse assessed as sleeping time at 50 mg/kg, iv by loss of righting reflex method; assay type: functional
Mus musculus [5] = assay: Potentiation of thiopental-induced hypnosis in mouse assessed as sleeping time at 100 mg/kg, iv by loss of righting reflex method; assay type: functional
Mus musculus [6] = assay: Hypnotic effect in mouse assessed as sleeping time at 100 mg/kg, ip; assay type: functional; conditions: route intraperitoneal
Mus musculus [7] = assay: Hypnotic effect in mouse assessed as sleeping time at 200 mg/kg, ip; assay type: functional; conditions: route intraperitoneal
Mus musculus [8] = assay: Potentiation of thiopental-induced hypnosis in mouse assessed as sleeping time at 100 mg/kg, ip; assay type: functional; conditions: route intraperitoneal
Mus musculus [9] = assay: Potentiation of thiopental-induced hypnosis in mouse assessed as sleeping time at 200 mg/kg, ip; assay type: functional; conditions: route intraperitoneal
Mus musculus [10] = assay: Acute tolerance in mouse assessed as sleeping time at 200 mg/kg, ip 3 times day after 3 days; assay type: ADME, organism-based; design: dose 200 mg/kg, route intraperitoneal; conditions: in vivo, 72 h
Mus musculus [11] = assay: Acute tolerance in mouse assessed as sleeping time at 200 mg/kg, ip; assay type: ADME, organism-based; design: dose 200 mg/kg, route intraperitoneal; conditions: in vivo

Row | SMILES | Time (Mus musculus [1]) | Time (Mus musculus [2]) | Time (Mus musculus [3]) | Time (Mus musculus [4]) | Time (Mus musculus [5]) | Time (Mus musculus [6]) | Time (Mus musculus [7]) | Time (Mus musculus [8]) | Time (Mus musculus [9]) | Time (Mus musculus [10]) | Time (Mus musculus [11])
1 | CCCC(C)C1(CC)C(=O)[N-]C(=S)NC1=O.[Na+] (configuration not stated) [THIOPENTAL SODIUM] | 4.9 min | 15.2 min | – | – | – | – | – | – | – | – | –
2 | CCOC(=O)C1=CSC2=NC(=O)CCCN12 | 0.75 min | – | 1.48 min | 19.9 min | 25.7 min | 2.4 min | 9.1 min | 49.2 min | 155.7 min | 8.7 min | 10.3 min
